Laboratory results from the supplement of paper PMC12137928.
Where a name gives a salt, the structure may show the parent alone.

Key:
HCT116 [1] = settings: 72 h
Method in brief: (§1)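 In 1536-well plates, 250 HCT116 cells per well were seeded and left for 5 h to attach. Luminescence from CellTiter-Glo was set against vehicle (0%) and positive control (-100%), and pattern correction was applied. IC50 and maximal efficacy come from four-parameter Hill fitting.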

HCT116 [2] = experiment: efficacy (maximum % inhibition of viability vs DMSO); higher = more cytotoxic; settings: 72 h
Method in brief: as §1

Row | SMILES | IC50 cell viability (HCT116 [1]; ICRF193 0 nM) [µM] | IC50 cell viability (HCT116 [1]; ICRF193 200 nM) [µM] | efficacy (HCT116 [2]; ICRF193 200 nM) [%] | efficacy (HCT116 [2]; ICRF193 0 nM) [%]
1 | N#C/C(=C1/SC[C@@H](c2ccc(Cl)cc2Cl)S1)n1ccnc1 [Luliconazole] | > 45.8 | 20.6 | 44.9 | –
2 | CCCCN(CCCC)CC(O)c1cc(Cl)cc2c1-c1ccc(Cl)cc1/C2=C/c1ccc(Cl)cc1 (centres undefined) [Lumefantrine] | 23.1 | 18.3 | 113 | 120
3 | O=C1[C@@H]2[C@H]3CC[C@H](C3)[C@@H]2C(=O)N1C[C@@H]1CCCC[C@H]1CN1CCN(c2nsc3ccccc23)CC1 [Lurasidone (Hydrochloride)] | > 45.8 | 29.1 | 46.3 | –
4 | NCCCC[C@H](NC(=O)[C@@H]1CCCN1C(=O)[C@@H]1CSSC[C@H](N)C(=O)N[C@@H](Cc2ccc(O)cc2)C(=O)N[C@@H](Cc2ccccc2)C(=O)N[C@@H](CCC(N)=O)C(=O)N[C@@H](CC(N)=O)C(=O)N1)C(=O)NCC(N)=O [Lypressin] | > 45.8 | 29.1 | 51.6 | –
5 | CN1CCc2c(c3ccccc3n2Cc2ccccc2)C1 [MEBHYDROLIN] | > 45.8 | 11.6 | 41.4 | –
6 | NC(=O)c1cccc2cn(-c3ccc([C@@H]4CCCNC4)cc3)nc12 [MK-4827] | 29.1 | 18.3 | 114 | 72.9
7 | C=C[C@@H]1C[C@]1(NC(=O)[C@@H]1C[C@@H]2CN1C(=O)[C@H](C(C)(C)C)NC(=O)O[C@@H]1C[C@H]1CCCCCc1nc3ccc(OC)cc3nc1O2)C(=O)NS(=O)(=O)C1CC1 [MK-5172] | 29.1 | 18.3 | 81.1 | 91.6
8 | CC(C)C[C@H](NC(=O)CNC(=O)c1cc(Cl)ccc1Cl)B1OC(=O)C(CC(=O)O)(CC(=O)O)O1 [MLN9708] | 0.13 | 0.103 | 94.4 | 96.2
9 | CN(C)c1ccc(C(=C2C=CC(=[N+](C)C)C=C2)c2ccccc2)cc1 [Malachite green oxalate] | 0.183 | 0.231 | 96 | 98.5
10 | COC(=O)C1=C(C)NC(C)=C(C(=O)OCCN2CCN(C(c3ccccc3)c3ccccc3)CC2)C1c1cccc([N+](=O)[O-])c1 (centres undefined) [Manidipine] | 18.3 | 18.3 | 90.1 | 92
11 | CNCCCC12CCC(c3ccccc31)c1ccccc12 [Maprotiline hydrochloride] | > 45.8 | 29.1 | 86.5 | –
12 | COc1ccc(C(C)(C)C)cc1CN[C@H]1C2CCN(CC2)[C@H]1C(c1ccccc1)c1ccccc1 [Maropitant] | 18.3 | 18.3 | 96 | 60.3
13 | Cc1ccc(NC(=O)c2ccc(CN3CCN(C)CC3)cc2)cc1Nc1nc(-c2cccnc2)cs1 [Masitinib] | 11.6 | 20.6 | 66.8 | 43.6
14 | NS(=O)(=O)c1ccc(-n2nc(C(F)(F)F)cc2-c2ccc(F)cc2)cc1 [Mavacoxib] | 29.1 | 20.6 | 51.5 | 56.9
15 | COC(=O)Nc1nc2cc(C(=O)c3ccccc3)ccc2[nH]1 [Mebendazole] | 20.6 | 0.92 | 61.9 | 55.3
16 | Cc1cccc(CN2CCN(C(c3ccccc3)c3ccc(Cl)cc3)CC2)c1 (centres undefined) [Meclizine hydrochloride] | > 45.8 | 29.1 | 49.1 | –
17 | C=C1c2c(Cl)ccc(O)c2C(=O)C2=C(O)[C@]3(O)C(=O)C(C(N)=O)=C(O)[C@@H](N(C)C)[C@@H]3[C@@H](O)[C@H]12.O=C(O)c1cc(S(=O)(=O)O)ccc1O [Meclocycline sulfosalicylate] | 20.6 | 29.1 | 64 | 54.3
18 | OC(c1cc(C(F)(F)F)nc2c(C(F)(F)F)cccc12)C1CCCCN1 (centres undefined) [Mefloquine hydrochloride] | 23.1 | 23.1 | 98 | 116
19 | C=C1C[C@H]2[C@@H]3C=C(C)C4=CC(=O)CC[C@]4(C)[C@H]3CC[C@]2(C)[C@@]1(OC(C)=O)C(C)=O [Melengestrol acetate] | > 45.8 | 18.3 | 40.9 | –
20 | CN(C)CCC=C1c2ccccc2C(C)(C)c2ccccc21 [Melitracen hydrochloride] | > 45.8 | 29.1 | 61.4 | –
21 | Cc1cc(O)c2ccccc2c1O [Menadiol] | > 45.8 | 20.6 | 41.5 | –
22 | CC1(S(=O)(=O)O)CC(=O)c2ccccc2C1=O (centres undefined) [Menadione sodium bisulfite] | 18.3 | 29.1 | 40.7 | 102
23 | c1ccc2c(c1)Sc1ccccc1N2CC1CN2CCC1CC2 (centres undefined) [Mequitazine] | 16.4 | 20.6 | 96.8 | 103
24 | CN1CCC(CN2c3ccccc3Sc3ccccc32)C1 (centres undefined) [Methdilazine hydrochloride] | > 45.8 | 18.3 | 53.5 | –
25 | CN(Cc1cnc2nc(N)nc(N)c2n1)c1ccc(C(=O)N[C@@H](CCC(=O)O)C(=O)O)cc1 [Methotrexate] | 0.146 | 0.146 | 93.9 | 91.8
26 | COc1ccc2c(c1)N(C[C@H](C)CN(C)C)c1ccccc1S2 [Methotrimeprazine maleat salt] | > 45.8 | 23.1 | 50.8 | –
27 | CO[C@H]1[C@@H](O)C[C@H](O[C@H]2[C@@H](O)C[C@H](O[C@H]3[C@@H](O)C[C@H](O[C@H]4CC[C@@]5(C)[C@H](CC[C@@H]6[C@@H]5C[C@@H](O)[C@]5(C)[C@@H](C7=CC(=O)OC7)CC[C@]65O)C4)O[C@@H]3C)O[C@@H]2C)O[C@@H]1C [Methyldigoxin] | 0.0891 | 0.1 | 86.6 | 90.7

Row | SMILES | IC50 cell viability (HCT116 [1]; ICRF193 0 nM) [µM] | IC50 cell viability (HCT116 [1]; ICRF193 200 nM) [µM] | efficacy (HCT116 [2]; ICRF193 200 nM) [%] | efficacy (HCT116 [2]; ICRF193 0 nM) [%]
28 | CN(C)c1ccc2nc3ccc(=[N+](C)C)cc-3sc2c1 [Methylene blue] | 3.66 | 2.31 | 91.6 | 109
29 | CN(C)c1ccc(C(=C2C=CC(=[N+](C)C)C=C2)c2ccc(N(C)C)cc2)cc1 [Methylrosaniline chloride] | 0.326 | 0.164 | 90.4 | 89.5
30 | CN1CCCC(CC2c3ccccc3Sc3ccccc32)C1 (centres undefined) [Metixene hydrochloride] | 20.6 | 25.9 | 94.6 | 109
31 | CN1CCN2c3ccccc3Cc3ccccc3C2C1 (centres undefined) [Mianserin] | 23.1 | 29.1 | 62 | 51
32 | CCCCCCCCCCCCCCCCCCNC(=O)OC1CCN(C(=O)OC[C@H](COC(=O)N(Cc2cccc[n+]2CC)C(=O)c2ccccc2OC)OC)CC1 [Minopafant] | 11.6 | 16.4 | 124 | 111
33 | CCCCCCCCCCCCCC[n+]1ccc(C)cc1 [Miripirium chloride] | 11.6 | 8.2 | 70 | 104
34 | O=C1c2c(O)ccc(O)c2C(=O)c2c(NCCNCCO)ccc(NCCNCCO)c21 [Mitoxantrone] | 2.31 | 2.06 | 96.4 | 90.7
35 | C[C@@H]1C[C@H]2[C@@H]3CCC4=CC(=O)C=C[C@]4(C)[C@@]3(Cl)[C@@H](O)C[C@]2(C)[C@@]1(OC(=O)c1ccco1)C(=O)CCl [Mometasone furoate] | 18.3 | 20.6 | 97.9 | 102
36 | O=C(CCCN1CCN(c2ccc(F)cc2)CC1)NC1c2ccccc2CSc2ccccc21 (centres undefined) [Monatepil] | 23.1 | 23.1 | 93.7 | 123
37 | CC[C@@]1([C@@H]2O[C@@H]([C@H]3O[C@@](O)(CO)[C@H](C)C[C@@H]3C)C[C@@H]2C)CC[C@H]([C@]2(C)CC[C@]3(C[C@H](O)[C@@H](C)[C@@H]([C@@H](C)[C@@H](OC)[C@H](C)C(=O)O)O3)O2)O1 [Monensin sodium salt] | 3.18 | 3.18 | 83.4 | 81.1
38 | C[C@](C#N)(COc1cc(C#N)ccc1C(F)(F)F)NC(=O)c1ccc(SC(F)(F)F)cc1 [Monepantel] | 23.1 | 20.6 | 90.3 | 98.1
39 | O=C1NC2CCCCN2C12CCN(CCCN1c3ccccc3CCc3ccc(Cl)cc31)CC2 (centres undefined) [Mosapramine] | 20.6 | 23.1 | 129 | 125
40 | CO/N=C1\C[C@]2(C[C@@H]3C[C@@H](C/C=C(\C)C[C@@H](C)/C=C/C=C4\CO[C@@H]5[C@H](O)C(C)=C[C@@H](C(=O)O3)[C@]45O)O2)O[C@H](/C(C)=C/C(C)C)[C@H]1C [Moxidectin] | 20.6 | 16.4 | 111 | 128
41 | COc1c(C)c2c(c(O)c1C/C=C(\C)CCC(=O)OCCN1CCOCC1)C(=O)OC2 [Mycophenolate mofetil] | 1.83 | 1.64 | 74.4 | 74
42 | COc1c(C)c2c(c(O)c1C/C=C(\C)CCC(=O)O)C(=O)OC2 [Mycophenolic acid] | 1.83 | 2.59 | 92.4 | 70.7
43 | Cc1ccc2nc(N)[nH]c(=O)c2c1Sc1ccncc1 [NOLATREXED HCL] | > 45.8 | 20.6 | 45.1 | –
44 | CN(C/C=C/c1ccccc1)Cc1cccc2ccccc12 [Naftifine hydrochloride] | 32.6 | 29.1 | 54 | 49.9
45 | COc1ccccc1N1CCN(CC(O)COc2cccc3ccccc23)CC1 (centres undefined) [Naftopidil] | > 45.8 | 23.1 | 62.6 | –
46 | C[C@]12CC[C@H]3[C@@H](CCC4=CC(=O)CC[C@@H]43)[C@@H]1CC[C@@H]2OC(=O)CCc1ccco1 [Nandrolone furylpropionate] | 29.1 | 29.1 | 88 | 93.3
47 | CC[C@@H](C(=O)O)[C@@H]1O[C@@H]([C@@H](C)[C@H](O)[C@H](C)C(=O)[C@H](CC)[C@H]2O[C@]3(C=C[C@@H](O)[C@]4(CC[C@@](C)([C@H]5CC[C@](O)(CC)[C@H](C)O5)O4)O3)[C@H](C)C[C@@H]2C)[C@@H](C)C[C@@H]1C [Narasin] | 3.66 | 2.91 | 94.5 | 80.5
48 | CCc1nn(CCCN2CCN(c3cccc(Cl)c3)CC2)c(=O)n1CCOc1ccccc1 [Nefazodone hydrochloride] | 14.6 | 18.3 | 63.8 | 42.5
49 | Cc1c(O)cccc1C(=O)N[C@@H](CSc1ccccc1)[C@H](O)CN1C[C@H]2CCCC[C@H]2C[C@H]1C(=O)NC(C)(C)C [Nelfinavir mesylate] | 29.1 | 20.6 | 106 | 104
50 | COc1cccc2c1C(=O)c1c(O)c3c(c(O)c1C2=O)C[C@@](O)(C(=O)CO)C[C@@H]3O[C@H]1C[C@H](N2CCO[C@H](OC)C2)[C@H](O)[C@H](C)O1 [Nemorubicin] | 0.0259 | 0.0291 | 76.1 | 68.6
51 | Cc1ccc(C(=O)OCc2ccc([C@@H](CN)C(=O)Nc3ccc4cnccc4c3)cc2)c(C)c1 [Netarsudil] | 14.2 | 8.96 | 94.1 | 104
52 | CCCCCOc1ccccc1/C(=C\SC)n1ccnc1 [Neticonazole] | 16.4 | 16.4 | 51.1 | 48.1
53 | COC(=O)C1=C(C)NC(C)=C(C(=O)OCCN(C)Cc2ccccc2)C1c1cccc([N+](=O)[O-])c1 (centres undefined) [Nicardipine] | 23.1 | 20.6 | 69.1 | 61.1
